Assays:
[1] = system: mouse preantral follicles; assay: Mouse follicular culture system: activation of oocyte maturation; assay type: cell-based; details: for Activation [%] GVB / Follicles [n] GV / Follicles [n] GVB: added day 2 and 3, read at day 4
Experimental: Testing of Meiosis-Activating Substances in the Mouse Follicular Culture System
Follicles were obtained from 19-21 day-old immature female mice (C57BI/6J×CBA/J), that were kept under controlled lighting and temperature.
Collection of Serum and Culture of Follicles
Animals were anesthetized with ether, and blood was collected by means of eye extraction. After clotting, blood was centrifuged for 15 min at 4000×g, and serum was collected and stored at −20° C. until use. Ovaries were removed and placed in Leibovitz L-15 medium (Gibco Cat. No. 41300) supplemented with 1 mmol glutamine l^−1, 3 mg BSA ml^−1, 5 μg human transferrin ml^−1 (without iron), 5 μg insulin ml^−1 (culture-grade chemicals, Sigma, St. Louis, Mo.) at 37 °C.
Preantral follicles with a diameter of 170-190 μm were isolated mechanically with two 27-gauge needles attached to 1 ml syringe. They were placed and washed thereafter (3 times) in 4-well culture plates (Nunclon, Denmark) in α-minimum essential medium (α-MEM; Gibco Cat. No. 11900) supplemented with 2 mmol glutamine l^−1, 10 μg transferrin ml^−1 and 10 μg insulin ml and with 3 mg BSA ml^−1.
Follicles of 170-190 μm with normal morphological appearence, i.e. a central spherical oocyte, high density of granulosa cells, and a theca layer enclosing the entire follicle, were selected and individually cultured in 96-well culture plate (Nunclon, Denmark) inserts with 40 μl α-MEM culture medium supplemented with 50 μl immature mouse serum ml^−1, 5 μg insulin ml^−1, 2 mmol glutamine l^−1, 10 μg human transferrin ml^−1 and 0.2 IU FSH (Gonal F, Serono, Solna, Sweden). Without any oil cover follicles were cultured in a humidified incubator gassed with 5% CO2 in air at 37° C.
Start of culture was defined as day 0. Culture medium was exchanged every other day. The diameter of the follicles was measured each day using ×100 magnification and a calibrated micrometer. In addition, the survival rate of the follicles was checked by evaluation of degeneration (darkening of the follicle) and bursting (loss of the oocyte). The culture time was 4 days.
At day 2 and day 3 of culture test compound or vehicle at a volume of 1.72 μl was added to the culture medium. Test compounds were dissolved in ethanol (vehicle).
(§1) Oocytes arrested in meiosis are characterized by an intact nucleus with a prominent nucleolus, known as germinal vesicle (GV). Upon reinitiation of meiosis the nucleolus and the nuclear envelope disappear and this is characterized by a breakdown of the GV, which then is called germinal vesicle breakdown (GVB).
At day 4, by the end of the culture period, follicles were checked for resumption of meiosis. The number of follicles having oocytes with germinal vesicle (GV) or germinal vesicle breakdown (GVB) was counted using a stereo microscope or an inverted microscope with differential interference contrast equipment. The percentage of follicles with GVB per total number of follicles was calculated in the test cultures and compared to the vehicle control culture.

[2] = system: cumulus enclosed mouse oocytes; assay: Mouse oocyte assay: activation of meiosis in cumulus enclosed oocytes in Hx-medium; assay type: cell-based; details: CEO in Hx-medium, 22 hours culture
Experimental: Testing of Meiosis-Activating Substances in the Mouse Oocyte Assay
Oocytes were obtained from immature female mice (C57BI/6J×DBA/2J F1-hybrids, Bomholtgaard, Denmark) weighing 13-16 grams, that were kept under controlled lighting and temperature. The mice received an intra-peritoneal injection of 0.2 ml gonadotropins (containing 10 IU PMSG, pregnant mare serum gonadotropin, Sigma Cat. No. G-4877) and 48 hours later the animals were killed by cervical dislocation.
Collection and Culture of Oocytes
The ovaries were dissected out and the oocytes were isolated in Hx-medium (see below) under a stereo microscope by manual rupture of the follicles using a pair of 27 gauge needles. Spherical, cumulus enclosed oocytes (CEO) displaying an intact germinal vesicle (GV) were placed in α-minimum essential medium (α-MEM without ribonucleosides, Gibco BRL, Cat. No. 22561) supplemented with 3 mM hypoxanthine (Sigma Cat. No. H-9377), 8 mg/ml Human Serum Albumin (HSA, State Serum Institute, Denmark), 0,23 mM pyruvate (Sigma, Cat. No. S-8636), 2 mM glutamine (Flow Cat. No. 16-801), 100 IU/ml penicillin and 100 μg/ml streptomycin (Flow Cat No. 16-700). This medium was designated Hx-medium.
The oocytes were rinsed three times in Hx-medium and cultured in 4-well multidishes (Nunclon, Denmark) in which each well contained 0.4 ml of Hx-medium and approx. 25 oocytes. One control (i.e. approx. 25 oocytes cultured in Hx-medium with no addition of test compound) was always run simultaneously with the test cultures, which were made with different concentrations of the compounds to be tested. The cultures were performed at 37° C. and 100% humidity with 5% CO2 in air. The culture time was 22 hours.
as §1, with “than” for “then”, “(GVB). Some hours later the oocyte complete a reductional division and elicit the first so called polar body (PB).” for “(GVB).”
By the end of the culture period, the number of oocytes with germinal vesicle (GV) or germinal vesicle breakdown (GVB) and those with polar body (PB) was counted using a stereo microscope or an inverted microscope with differential interference contrast equipment. The percentage of oocytes with GVB per total number of oocytes and the percentage of oocytes with PB per total number of oocytes was calculated in the test cultures and compared to the control culture.

rat oocytes = details: micromolar concentrations; rat CEO and DO arrested by IBMX; cited from earlier work

In the case of `C[C@H](CN1CCCCC1)[C@H]1CC=C2C3=C(CC[C@@]21C)[C@@]1(C)CC[C@H](O)C(C)(C)[C@@H]1CC3` [Example 1, (20S)-20-[(piperidin-1-yl)methyl]-4,4-dimethyl-5α-pregna-8,14-dien-3β-ol], the “Activation [%] GVB” value ([1]; 1 μM) was 78%, the “Follicles [n] GV” value ([1]; 1 μM) was 2 n and the “Follicles [n] GVB” value ([1]; 1 μM) was 7 n. The “Activation [%] GVB” value ([1]; 3 μM) was 100%, the “Follicles [n] GV” value ([1]; 3 μM) was 0 n and the “Follicles [n] GVB” value ([1]; 3 μM) was 9 n. For the same compound, the “Activation [%] GVB” value ([1]; 10 μM) was 100%, the “Follicles [n] GV” value ([1]; 10 μM) was 0 n and the “Follicles [n] GVB” value ([1]; 10 μM) was 8 n. The “Activation [%] GVB + PB” value ([2]; 0,1 μM) was 39%, the “Oocytes [n] GV” value ([2]; 0,1 μM) was 14 n and the “Oocytes [n] GVB” value ([2]; 0,1 μM) was 7 n. For the same compound, the “Oocytes [n] PB” value ([2]; 0,1 μM) was 2 n, the “Activation [%] GVB + PB” value ([2]; 1 μM) was 75% and the “Oocytes [n] GV” value ([2]; 1 μM) was 6 n. For the same compound, the “Oocytes [n] GVB” value ([2]; 1 μM) was 12 n, the “Oocytes [n] PB” value ([2]; 1 μM) was 6 n and the “Activation [%] GVB + PB” value ([2]; 10 μM) was 95%. For the same compound, the “Oocytes [n] GV” value ([2]; 10 μM) was 1 n, the “Oocytes [n] GVB” value ([2]; 10 μM) was 14 n and the “Oocytes [n] PB” value ([2]; 10 μM) was 7 n.
In the case of `CC(C)=CCC[C@@H](C)[C@H]1CC=C2C3=C(CC[C@@]21C)[C@@]1(C)CC[C@H](O)C(C)(C)[C@@H]1CC3` [FF-MAS, 4,4-dimethyl-5α-cholesta-8,14,24-trien-3β-ol, reference compound], the “Activation [%] GVB” value ([1]; 10 μM) was 0%, the “Follicles [n] GV” value ([1]; 10 μM) was 9 n and the “Follicles [n] GVB” value ([1]; 10 μM) was 0 n. The “induction of maturation / activation of meiosis in a follicle culture system” value ([1]; follicle culture system) was “not able to induce maturation”, the resumption of meiosis (rat oocytes) was “able to induce resumption of meiosis in a dose-dependent manner” and the “Activation [%] GVB + PB” value ([2]; 10 μM) was 46%. For the same compound, the “Oocytes [n] GV” value ([2]; 10 μM) was 13 n, the “Oocytes [n] GVB” value ([2]; 10 μM) was 6 n and the “Oocytes [n] PB” value ([2]; 10 μM) was 5 n.

Source: patent US6916921B2, “Steroid compounds, use of these compounds for the preparation of meiosis-regulating medicaments and method for the preparation of these compounds” (Schering AG, priority 2001, dated 2005)
